Assay results published in publication PMC8209157, “Identification of a dual orange/far-red and blue light photoreceptor from an oceanic green picoplankton” (Nature Communications, 2021).

Assays:
[1] = target: T1, PpPHY (PHY region of PpDUC1) (Pycnococcus provasolii, UniProt A0A830HT85); assay: UV-Vis photoconversion spectra of purified holoprotein; assay type: binding; settings: chromophore co-produced in E. coli (pKT272); HEPES pH 7.5, room temperature
T1 construct: gene PPROV_000692100; source genome assembly GCA_015473125.1
T1 sequence (A0A830HT85 1-662): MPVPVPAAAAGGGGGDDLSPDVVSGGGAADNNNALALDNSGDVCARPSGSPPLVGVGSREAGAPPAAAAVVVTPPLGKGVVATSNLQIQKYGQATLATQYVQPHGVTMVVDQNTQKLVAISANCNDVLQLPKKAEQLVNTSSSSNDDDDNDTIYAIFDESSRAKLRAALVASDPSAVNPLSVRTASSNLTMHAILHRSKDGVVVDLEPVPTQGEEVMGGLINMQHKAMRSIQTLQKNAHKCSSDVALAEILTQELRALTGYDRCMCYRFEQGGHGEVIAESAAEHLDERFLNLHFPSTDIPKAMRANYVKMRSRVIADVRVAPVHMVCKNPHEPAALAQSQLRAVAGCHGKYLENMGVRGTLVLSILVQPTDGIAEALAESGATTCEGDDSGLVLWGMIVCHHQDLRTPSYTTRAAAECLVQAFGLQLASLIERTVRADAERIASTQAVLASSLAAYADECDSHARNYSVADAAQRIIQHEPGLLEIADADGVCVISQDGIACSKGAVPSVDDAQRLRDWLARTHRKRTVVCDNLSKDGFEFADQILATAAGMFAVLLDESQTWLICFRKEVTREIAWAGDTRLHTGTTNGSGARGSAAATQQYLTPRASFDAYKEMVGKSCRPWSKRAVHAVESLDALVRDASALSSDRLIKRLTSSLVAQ

[2] = target: T1, PpPHY (PHY region of PpDUC1); assay: UV-Vis photoconversion spectra, acid-urea denaturation and in-gel fluorescence of purified holoprotein; assay type: binding; settings: covalent; GAF Cys; chromophore co-produced in E. coli (pKT271); HEPES pH 7.5, room temperature

UV-Vis photoconversion spectra, acid-urea denaturation and in-gel fluorescence o [2]	Compound	UV-Vis photoconversion spectra of purified holoprotein [1]
–	C=CC1=C(C)C(=CC2=NC(=Cc3[nH]c(C=C4NC(=O)C(C)C4=CC)c(C)c3CCC(=O)O)C(CCC(=O)O)=C2C)NC1=O (centres unmarked) [PΦB, phytochromobilin]	PΦB but not BV could be efficiently incorporated into the apo-PpPHY
The purified PpPHY covalently bound PCB	CC=C1C(=Cc2[nH]c(C=C3N=C(C=C4NC(=O)C(CC)=C4C)C(C)=C3CCC(=O)O)c(CCC(=O)O)c2C)NC(=O)C1C (centres unmarked) [PCB, phycocyanobilin]	–
